Experimental data published in ChEMBL document CHEMBL6121047, “Design, Synthesis, and Evaluation of Selective PDE4 Inhibitors for the Therapy of Pulmonary Injury” (J Med Chem, 2025).
Active and inactive are the calls of the source. The rule behind the calls is not given here.

How the values were obtained:
BEAS-2B = experiment: Anti-inflammatory activity in LPS-induced human BEAS-2B cells assessed as inhibition of TNF-alpha secretion level at 10 uM preincubated with compound for 1 hr followed by LPS addition and measured after 24 hrs by ELISA; type: functional, cell-based; details: time 25.0 hrs
HepG2 = experiment: Cytotoxicity against human HepG2 cells assessed as reduction in cell viability incubated for 24 hrs by CCK-8 assay; type: toxicity, cell-based; details: hepg2, 24 h
Mus musculus [1] = experiment: (§1) Anti-inflammatory activity against cigarette-smoke/LPS-induced COPD male C57BL/6 mouse model assessed as reduction in TNF-alpha level in BALF at 5 mg/kg pretreated with cigarette smoke exposure for 21 weeks with subsequent LPS induction twice on the first and 15th day followed by compound administration every day via gavage for 4 weeks; type: functional, organism-based
RAW264.7 [2] = experiment: Anti-inflammatory activity in LPS-induced mouse RAW264.7 cells assessed as decrease in p-p38 MAPK protein level by Western blotting analysis; type: functional, cell-based
Mus musculus [3] = experiment: Anti-inflammatory activity against LPS-induced acute lung injury male BALB/c mouse model assessed as reduction in IL-6 level in BALF at 8 to 32 mg/kg administered once a day via gavage for 7 days followed by LPS stimulation and measured after 24 hrs; type: functional, organism-based; details: dose 8-32 mg/kg, time 192.0 hrs
[4] = Initial plasma concentration in Sprague-Dawley rat at 5 mg/kg, iv measured upto 24 hrs by LC-MS/MS analysis; type: ADME, organism-based
[5] = Toxicity in female Beagle dog assessed as emesis at 1 to 3 mg/kg, po administered once via gavage and measured within 24 hrs; type: organism-based, Canis lupus familiaris; details: in vivo, dose 1-3 mg/kg
Mus musculus [6] = experiment: as §1, with “MMP9” for “TNF-alpha”; type: functional, organism-based
NCI-H292 = experiment: Anti-inflammatory activity against EGF-induced human NCI-H292 cells assessed as decrease in MUC5AC mRNA expression by RT-qPCR analysis; type: functional, cell-based; details: dose 10-50 µM
[7] = Acute toxicity in Sprague-Dawley rat assessed as effect on apparent lung coefficient change at 1 g/Kg, po administered via gavage; type: organism-based; details: in vivo, 1000 mg/kg
RAW264.7 [8] = experiment: Anti-inflammatory activity in LPS-induced mouse RAW264.7 cells assessed as inhibition of IL-1 beta secretion level at 10 uM preincubated with compound for 1 hr followed by LPS addition and measured after 24 hrs by ELISA; type: functional, cell-based; details: time 25.0 hrs
[9] = Apparent volume of distribution in Sprague-Dawley rat at 5 mg/kg, iv measured upto 24 hrs by LC-MS/MS analysis; type: ADME, organism-based; details: in vivo, read-out: Vz
[10] = target: Voltage-gated inwardly rectifying potassium channel KCNH2 (Homo sapiens, UniProt Q12809); experiment: Inhibition of hERG expressed in HEK293T cells; type: toxicity, cell-based
Sequence of Voltage-gated inwardly rectifying potassium channel KCNH2 (Q12809 whole entry): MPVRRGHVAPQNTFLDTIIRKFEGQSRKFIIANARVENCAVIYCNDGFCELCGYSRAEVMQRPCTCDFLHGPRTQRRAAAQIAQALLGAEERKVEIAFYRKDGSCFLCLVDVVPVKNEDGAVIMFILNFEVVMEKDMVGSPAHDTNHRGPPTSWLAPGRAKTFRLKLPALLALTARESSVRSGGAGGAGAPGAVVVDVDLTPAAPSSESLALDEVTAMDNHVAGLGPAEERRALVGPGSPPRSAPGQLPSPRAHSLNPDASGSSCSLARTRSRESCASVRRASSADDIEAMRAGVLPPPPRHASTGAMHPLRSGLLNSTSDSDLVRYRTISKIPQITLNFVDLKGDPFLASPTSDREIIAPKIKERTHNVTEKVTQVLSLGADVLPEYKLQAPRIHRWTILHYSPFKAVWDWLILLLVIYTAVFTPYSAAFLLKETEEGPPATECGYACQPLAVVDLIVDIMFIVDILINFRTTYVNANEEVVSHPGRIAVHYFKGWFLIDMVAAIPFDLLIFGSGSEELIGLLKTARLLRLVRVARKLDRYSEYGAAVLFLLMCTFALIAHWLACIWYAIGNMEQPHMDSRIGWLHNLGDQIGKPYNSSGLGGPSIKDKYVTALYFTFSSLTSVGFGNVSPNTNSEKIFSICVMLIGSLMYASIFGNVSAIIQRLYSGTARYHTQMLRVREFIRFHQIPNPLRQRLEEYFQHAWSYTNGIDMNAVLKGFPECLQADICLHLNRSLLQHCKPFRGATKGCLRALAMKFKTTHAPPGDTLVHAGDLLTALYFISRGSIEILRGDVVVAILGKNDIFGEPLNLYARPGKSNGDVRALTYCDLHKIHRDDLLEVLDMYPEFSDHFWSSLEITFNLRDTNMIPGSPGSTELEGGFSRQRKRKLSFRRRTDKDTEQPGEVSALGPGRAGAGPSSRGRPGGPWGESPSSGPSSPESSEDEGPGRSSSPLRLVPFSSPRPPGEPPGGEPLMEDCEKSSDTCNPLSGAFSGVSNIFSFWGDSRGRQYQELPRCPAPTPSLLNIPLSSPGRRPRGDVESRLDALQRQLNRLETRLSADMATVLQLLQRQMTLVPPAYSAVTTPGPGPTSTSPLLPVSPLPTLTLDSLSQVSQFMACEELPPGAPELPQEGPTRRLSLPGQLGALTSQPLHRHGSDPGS

Mus musculus [11] = experiment: (§2) Anti-inflammatory activity against LPS-induced acute lung injury male BALB/c mouse model assessed as relaxation of alveolar in lung at 8 to 32 mg/kg administered once a day via gavage for 7 days followed by LPS stimulation and measured after 24 hrs by H and E staining based microscopic analysis; type: functional, organism-based; details: dose 8-32 mg/kg, time 192.0 hrs
[12] = Oral bioavailability in Sprague-Dawley rat at 10 mg/kg measured upto 24 hrs by LC-MS/MS analysis; type: ADME, organism-based; details: in vivo
Mus musculus [13] = experiment: Anti-inflammatory activity against LPS-induced acute lung injury male BALB/c mouse model assessed as enlarged bronchiole tubes in lung at 8 to 32 mg/kg administered once a day via gavage for 7 days followed by LPS stimulation and measured after 24 hrs by H and E staining based microscopic analysis; type: functional, organism-based; details: dose 8-32 mg/kg, time 192.0 hrs
Mus musculus [14] = experiment: Anti-inflammatory activity against LPS-induced acute lung injury male BALB/c mouse model assessed as reduction in IL-1beta level in BALF at 8 to 32 mg/kg administered once a day via gavage for 7 days followed by LPS stimulation and measured after 24 hrs; type: functional, organism-based; details: dose 8-32 mg/kg, time 192.0 hrs
[15] = Acute toxicity in Sprague-Dawley rat assessed as effect on apparent liver coefficient change at 1 g/Kg, po administered via gavage; type: organism-based; details: in vivo, 1000 mg/kg
Mus musculus [16] = experiment: (§3) Anti-inflammatory activity against cigarette-smoke/LPS-induced COPD male C57BL/6 mouse model assessed as decrease in collagen formation at 5 mg/kg pretreated with cigarette smoke exposure for 21 weeks with subsequent LPS induction twice on the first and 15th day followed by compound administration every day via gavage for 4 weeks by masson staining based microscopic analysis; type: functional, organism-based
Mus musculus [17] = experiment: as §2, with “restoration” for “relaxation”, “alveolar cavities” for “alveolar”; type: functional, organism-based; details: dose 8-32 mg/kg, time 192.0 hrs
Mus musculus [18] = experiment: as §1, with “IL-6” for “TNF-alpha”; type: functional, organism-based
[19] = AUC (0 to t) in Sprague-Dawley rat at 5 mg/kg, iv measured upto 24 hrs by LC-MS/MS analysis; type: ADME, organism-based; details: in vivo
Mus musculus [20] = experiment: Enhancement of sputum secretion in male BALB/c mouse model assessed as increase in phenol red secretion in BALF at 4 to 32 mg/kg administered every day via gavage for 7 days followed by phenol red administration at 1 hrs post last dose and measured after 30 mins; type: functional, organism-based; details: dose 4-32 mg/kg, time 169.5 hrs
[21] = Acute toxicity in Sprague-Dawley rat assessed as pathological changes in heart at 1 g/Kg, po administered via gavage by H and E staining based analysis; type: organism-based; details: in vivo, 1000 mg/kg
RAW264.7 [22] = experiment: Anti-inflammatory activity against cigarette-smoke/LPS-induced mouse RAW264.7 cells assessed as inhibition of phosphorylated p38 MAPK protein expression by Western blotting analysis; type: functional, cell-based
Mus musculus [23] = experiment: Anti-inflammatory activity against LPS-induced acute lung injury male BALB/c mouse model assessed as reduction in total cell counts in BALF at 8 to 32 mg/kg administered once a day via gavage for 7 days followed by LPS stimulation and measured after 24 hrs; type: functional, organism-based; details: dose 8-32 mg/kg, time 192.0 hrs
[24] = Toxicity in female Beagle dog assessed as drug tolerance at 1 to 3 mg/kg, po administered once via gavage and measured within 24 hrs; type: organism-based, Canis lupus familiaris; details: in vivo, dose 1-3 mg/kg
[25] = Cmax in Sprague-Dawley rat at 10 mg/kg, po measured upto 24 hrs by LC-MS/MS analysis; type: ADME, organism-based; details: in vivo
Mus musculus [26] = experiment: Anti-inflammatory activity against LPS-induced acute lung injury male BALB/c mouse model assessed as restoration of alveolar septa in lung at 8 to 32 mg/kg administered once a day via gavage for 7 days followed by LPS stimulation and measured after 24 hrs by H and E staining based analysis; type: functional, organism-based; details: dose 8-32 mg/kg, time 192.0 hrs
Mus musculus [27] = experiment: as §3, with “reduction” for “decrease”, “bronchiole thickness” for “collagen formation”, “H and E” for “masson”; type: functional, organism-based
[28] = Acute toxicity in Sprague-Dawley rat assessed as pathological changes in spleen at 1 g/Kg, po administered via gavage by H and E staining based analysis; type: organism-based; details: in vivo, 1000 mg/kg
[29] = AUC (0 to t) in Sprague-Dawley rat at 10 mg/kg, po measured upto 24 hrs by LC-MS/MS analysis; type: ADME, organism-based; details: in vivo
RAW264.7 [30] = experiment: cells; details: Mus musculus
[31] = Acute toxicity in Sprague-Dawley rat assessed as increase in body weight at 1 g/Kg, po administered via gavage and measured on day 14; type: organism-based; details: in vivo, 1000 mg/kg
RAW264.7 [32] = experiment: Cytotoxicity against mouse RAW264.7 cells assessed as reduction in cell viability incubated for 24 hrs by CCK-8 assay; type: toxicity, cell-based; details: raw264.7, 24 h

For `O=C(Nc1nccs1)c1cccc2[nH]c(-c3ccc(OC(F)F)c(OCC4CC4)c3)nc12`, the Activity (BEAS-2B) was “Active”, the Activity (HepG2) was “Non-toxic” and the Activity (Mus musculus [1]) was “Active”. The Activity (RAW264.7 [2]) was “Active”, the Activity (Mus musculus [3]) was “Active” and the C0 at 24 h [4] was 38100 ng/mL. For the same molecule, the Activity [5] was “Non-toxic”, the Activity (Mus musculus [6]) was “Active” and the Activity (NCI-H292) was “Dose-dependent-effect”. The Activity [7] was “Non-toxic”, the Activity (RAW264.7 [8]) was “Active” and the Vd [9] was 0.606 L/kg. For the same molecule, the IC50 [10] was over 30 µM, the Activity (Mus musculus [11]) was “Active” and the bioavailability [12] was 4.59%. For the same molecule, the Activity (Mus musculus [13]) was “Active”, the Activity (Mus musculus [14]) was “Active” and the Activity [15] was “Non-toxic”. The Activity (Mus musculus [16]) was “Active”, the Activity (Mus musculus [17]) was “Active” and the Activity (Mus musculus [18]) was “Active”. The AUC(0-t) at 24 h [19] was 23200 ng·h/mL, the Activity (Mus musculus [20]) was “Active” and the Activity [21] was “Non-toxic”. For the same molecule, the Activity (RAW264.7 [22]) was “Active”, the Activity (Mus musculus [23]) was “Active” and the Activity [24] was “Non-toxic”. For the same molecule, the Cmax [25] was 219 ng/mL, the Activity (Mus musculus [26]) was “Active” and the Activity (Mus musculus [27]) was “Active”. For the same molecule, the Activity [28] was “Non-toxic”, the AUC(0-t) at 24 h [29] was 2130 ng·h/mL and the IC50 (RAW264.7 [30]) was 29.5 µM. For the same molecule, the Activity [31] was “Non-toxic” and the Activity (RAW264.7 [32]) was “Non-toxic”.
